In publication PMC10538245, “Fragment merging approach for design, synthesis, and biological assessment of urea/acetyl hydrazide clubbed thienopyrimidine derivatives as GSK-3β inhibitors” (BMC Chemistry, 2023):
Like-named read-outs stand apart in the source and are kept apart here.

How the values were obtained:
[1] = target: T1, GSK-3β (Homo sapiens, UniProt P49841); details: cited from earlier work
[2] = target: T1, GSK-3β; experiment: GSK-3β kinase inhibition, Z'-LYTE FRET assay (Thermo Fisher SelectScreen); type: biochemical; details: for inhibition at 100 µM: 100 μM single dose

T1 sequence (P49841 whole entry): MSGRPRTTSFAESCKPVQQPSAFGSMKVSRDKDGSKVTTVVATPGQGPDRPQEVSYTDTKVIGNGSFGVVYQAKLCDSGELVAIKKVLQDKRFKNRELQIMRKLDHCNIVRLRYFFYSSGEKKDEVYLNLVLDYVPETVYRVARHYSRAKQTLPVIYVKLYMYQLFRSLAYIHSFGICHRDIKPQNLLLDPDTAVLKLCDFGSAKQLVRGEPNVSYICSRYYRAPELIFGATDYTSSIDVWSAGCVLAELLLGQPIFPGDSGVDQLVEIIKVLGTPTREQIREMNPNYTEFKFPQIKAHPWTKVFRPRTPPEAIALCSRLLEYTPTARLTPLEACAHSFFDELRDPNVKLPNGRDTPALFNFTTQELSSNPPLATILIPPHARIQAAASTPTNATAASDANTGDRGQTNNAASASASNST

| Structure (SMILES) | melting point [°C] | IC50 [1] [µM] | inhibition at 10 µM ([2]; 10 μM) [%] | inhibition at 100 µM [2] [%] | IC50 ([2]; five doses 10 nM–100 µM) [µM] |
| --- | --- | --- | --- | --- | --- |
| O=C(COc1ncnc2sc3c(c12)CCCC3)NNC(=O)c1ccc([N+](=O)[O-])cc1 [6b] | 320 to 321 | – | – | – | – |
| COc1ccc(-c2cc3c(NC(=O)c4cccc(F)c4)ncnc3o2)cc1 [II] | – | > 35 | – | – | – |
| S=C(Nc1ccccc1)Nc1ncnc2sc3c(c12)CCCC3 [9a, Phenyl-3-(5,6,7,8-tetrahydrobenzo [4,5]thieno[2,3-d)pyrimidin-4-yl) thiourea] | 300 | – | 17 | 68 | – |
| Cc1cccc(NC(=O)Nc2ncnc3sc4c(c23)CCCC4)c1 [9b, 1-(5,6,7,8-Tetrahydrobenzo[4,5]thieno[2,3-d]pyrimidin-4-yl)-3-(m-tolyl)urea] | 300 | – | – | 70 | 28 |
